Assay results from patent US8003660B2, “Modulators of muscarinic receptors” (Vertex Pharmaceuticals Incorporated, priority 2006, dated 2011).

How the values were obtained:
Format in all cases: cell-based
M4 muscarinic receptor = target: T1, M4 muscarinic receptor (Homo sapiens, UniProt P08173); test: Functional mobilization of intracellular calcium (FLIPR) in CHO cells expressing M4; details: for EC50: CHO cells expressing M4, FLIPR calcium; for Emax: CHO, 100% = maximum response obtained with the Carbachol control, read-out: M4 Efficacy
T1 construct: expressed in transfected cells; host or cells: CHO (M4-CHO)
T1 sequence (P08173 1-479): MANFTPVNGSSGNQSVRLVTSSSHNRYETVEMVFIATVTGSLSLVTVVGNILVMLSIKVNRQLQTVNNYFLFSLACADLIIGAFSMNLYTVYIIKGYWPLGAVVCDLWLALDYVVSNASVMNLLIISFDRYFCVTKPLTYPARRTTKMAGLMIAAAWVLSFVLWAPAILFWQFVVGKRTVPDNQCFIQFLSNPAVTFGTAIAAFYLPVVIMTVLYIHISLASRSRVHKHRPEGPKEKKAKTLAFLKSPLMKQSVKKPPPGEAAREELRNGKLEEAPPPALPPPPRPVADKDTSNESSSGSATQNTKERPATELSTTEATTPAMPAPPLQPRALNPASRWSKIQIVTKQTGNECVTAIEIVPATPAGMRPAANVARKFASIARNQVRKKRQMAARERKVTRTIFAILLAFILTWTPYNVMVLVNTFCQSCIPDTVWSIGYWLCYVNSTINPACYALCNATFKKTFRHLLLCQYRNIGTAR
Experimental: (§1) Functional Mobilization of Intracellular Calcium to Determine Muscarinic Receptor Activity:
(§2) CHO cells expressing muscarinic receptors (M1 to M5) are grown as monolayers in tissue culture flasks at 37° C. in a humidified atmosphere containing 5% CO2 and passaged every 3-5 days. The growth media is Dulbecco's modified eagles medium (DMEM, Gibco Cat# 12430-054), containing 25 mM Hepes and supplemented with Fetal Bovine Serum (Hyclone, cat# SH30071.03), 0.1 mM of MEM non-essential amino acids (GIBCO, Cat# 11140-050), 1 mM MEM Sodium Pyruvate (GIBCO Cat# 11360-070) and 100 units/ml of Penicillin G and 100 μg/ml of Streptomycin (GIBCO Cat# 15140-122). The recombinant muscarinic receptor cell lines are grown under antibiotic pressure with media containing 25 μg/ml zeocin and 500 μg/ml G418 (M1-CHO), 4 μg/ml puromycin, 50 μg/ml zeocin and 2.5 μg/ml blasticidin (M2 and M4-CHO) or 50 μg/ml zeocin and 4 μg/ml puromycin (M3 and M5-CHO).
(§3) Cells are harvested at 80-90% confluence using Versene (GIBCO Cat# 15040-066), collected by centrifugation and seeded 18-24 hrs prior to running the calcium assay at a density of 5,000-10,000 cells/well in […], clear-bottomed 384-well plates (BD Biocoat, poly-D-lysine, Cat#356663). The day of the experiment, the cells are washed with a plate washer (Bioteck Instruments, ELX 405) using bath 1 buffer (140 mM NaCl, 4,5 mM KCl, 2 mM CaCl2, 1 mM MgCl2, 10 mM Hepes-Na, 10 mM Glucose, pH 7.4, with NaOH) containing 1 mM Probenecid. Next, the calcium dye Fluo-3 (25 μl/well of Fluo-3 AM at 4 μM, Molecular Probes F-1241, in Bath 1 buffer containing 1 mM Probenecid) is added to the 25 μl of Bath 1 remaining in each well after the plate wash and the dye is loaded at 37° C. in the tissue culture incubator for 60-90 min. The fluorescent dye is removed using the plate washer with Bath 1 containing 1 mM Probenecid, leaving 25 μl/well of this solution after the wash. Alternatively, cells can be loaded with the calcium indicator from Molecular Devices (Calcium 3 Assay Reagents, Cat #R7181) adding 5 μl of a 5× solution dye in Bath 1 containing 1 mM Probenecid (10 ml per dye flask cat#R7182 to generate a solution […]) to 20 μl of the same buffer. After loading for 60 min, the experiment can be run without having to remove the dye.
(§4) Compounds are prepared at a 2× fold concentration in a 96-well plate (round bottom, Costar Corning cat#3656), by reconstituting the pre-spotted compounds in bath 1 containing 1 mM probenecid. The final concentration DMSO is 0.5%, and the amount of DMSO is normalized across the assay plate. To determine an agonist action of the compounds on muscarinic receptors, the reconstituted compounds are added (25 μl compound/well) to the cell assay plate (containing 25 μl/well) using the multi-channel robotic system of the FLIPR 3 Instrument (Molecular Devices, Sunnyvale, Calif.). To determine a functional inhibitory action of the compounds on muscarinic receptors, the reconstituted compounds are added (25 μl compound/well) to the assay plate and pre-incubated for 15 min prior to adding 25 μl of Carbachol at 3× the EC80 for each muscarinic subtype. Alternatively, the compounds can be co-applied simultaneously with the agonist. In both assay modes, the fluorescence is recorded for 60 sec (excitation wavelength is […] and emission wavelength 540 nm) using the FLIPR 3 instrument.
(§5) The potency, efficacy and selectivity of the muscarinic compounds were evaluated by screening the compound activity across the whole family (M1 to M5 cells). Compounds were also screened for activity on other proteins such as other GPCRs and ion channels to determine selectivity on M4 receptors.

M1 muscarinic receptor = target: T2, M1 muscarinic receptor (Homo sapiens, UniProt P11229); test: Functional mobilization of intracellular calcium (FLIPR) in CHO cells expressing M1; details: for EC50: CHO cells expressing M1, FLIPR calcium; for Emax: CHO, 100% = maximum response obtained with the Carbachol control, read-out: M1 Efficacy
T2 construct: expressed in transfected cells; host or cells: CHO (M1-CHO)
T2 sequence (P11229 1-460): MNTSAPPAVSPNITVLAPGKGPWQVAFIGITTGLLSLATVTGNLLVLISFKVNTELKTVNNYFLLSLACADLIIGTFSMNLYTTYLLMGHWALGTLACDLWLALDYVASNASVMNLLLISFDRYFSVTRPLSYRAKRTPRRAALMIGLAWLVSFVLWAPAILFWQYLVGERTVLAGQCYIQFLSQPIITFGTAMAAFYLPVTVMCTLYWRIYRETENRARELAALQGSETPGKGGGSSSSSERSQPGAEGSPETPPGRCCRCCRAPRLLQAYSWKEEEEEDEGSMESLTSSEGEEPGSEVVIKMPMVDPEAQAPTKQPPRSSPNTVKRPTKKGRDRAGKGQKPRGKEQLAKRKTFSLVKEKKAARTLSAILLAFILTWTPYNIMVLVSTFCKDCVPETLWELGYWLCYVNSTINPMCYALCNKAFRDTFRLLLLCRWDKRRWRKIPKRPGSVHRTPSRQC
Experimental: as §1, §2, §3, §4, §5

M3 muscarinic receptor = target: T3, M3 muscarinic receptor (Homo sapiens, UniProt P20309); test: Functional mobilization of intracellular calcium (FLIPR) in CHO cells expressing M3; details: for EC50: CHO cells expressing M3, FLIPR calcium; for Emax: CHO, 100% = maximum response obtained with the Carbachol control, read-out: M3 Efficacy
T3 construct: expressed in transfected cells; host or cells: CHO (M3-CHO)
Experimental: as §1, §2, §3, §4, §5

M2 muscarinic receptor = target: T4, M2 muscarinic receptor (Homo sapiens, UniProt P08172); test: Functional mobilization of intracellular calcium (FLIPR) in CHO cells expressing M2; details: for EC50: CHO cells expressing M2, FLIPR calcium; for Emax: CHO, 100% = maximum response obtained with the Carbachol control, read-out: M2 Efficacy
T4 construct: expressed in transfected cells; host or cells: CHO (M2-CHO)
T4 sequence (P08172 1-466): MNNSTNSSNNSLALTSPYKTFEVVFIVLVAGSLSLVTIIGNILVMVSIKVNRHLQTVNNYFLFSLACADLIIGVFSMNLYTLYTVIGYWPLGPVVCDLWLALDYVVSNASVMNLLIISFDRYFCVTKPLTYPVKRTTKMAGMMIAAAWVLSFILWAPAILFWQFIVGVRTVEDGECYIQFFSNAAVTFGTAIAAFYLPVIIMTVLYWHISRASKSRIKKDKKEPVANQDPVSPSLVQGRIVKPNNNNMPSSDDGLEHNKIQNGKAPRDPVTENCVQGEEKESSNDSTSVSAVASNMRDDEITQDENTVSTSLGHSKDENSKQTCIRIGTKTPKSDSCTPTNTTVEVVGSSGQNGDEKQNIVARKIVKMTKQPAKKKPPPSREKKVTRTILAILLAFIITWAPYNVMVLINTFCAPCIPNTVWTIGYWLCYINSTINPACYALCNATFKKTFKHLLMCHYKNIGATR
Experimental: as §1, §2, §3, §4, §5

T3 sequence (P20309 whole entry): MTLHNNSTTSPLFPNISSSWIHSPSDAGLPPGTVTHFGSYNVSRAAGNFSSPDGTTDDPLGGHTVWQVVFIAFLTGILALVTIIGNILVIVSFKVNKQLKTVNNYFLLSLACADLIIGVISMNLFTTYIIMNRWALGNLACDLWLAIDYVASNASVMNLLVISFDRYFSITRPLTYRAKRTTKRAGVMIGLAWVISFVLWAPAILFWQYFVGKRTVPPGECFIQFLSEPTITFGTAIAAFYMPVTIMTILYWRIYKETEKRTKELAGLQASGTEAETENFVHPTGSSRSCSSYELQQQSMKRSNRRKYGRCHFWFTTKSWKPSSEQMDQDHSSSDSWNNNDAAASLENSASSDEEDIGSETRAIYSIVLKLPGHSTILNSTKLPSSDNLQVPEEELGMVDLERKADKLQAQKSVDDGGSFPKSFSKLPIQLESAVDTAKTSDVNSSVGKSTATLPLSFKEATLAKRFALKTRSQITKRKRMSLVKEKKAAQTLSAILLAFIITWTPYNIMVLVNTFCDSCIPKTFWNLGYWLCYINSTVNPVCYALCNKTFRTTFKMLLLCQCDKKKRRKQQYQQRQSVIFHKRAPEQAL

Row | Compound | EC50 (M4 muscarinic receptor) [nM] | Emax (M4 muscarinic receptor) [%] | EC50 (M1 muscarinic receptor) [nM] | Emax (M1 muscarinic receptor) [%] | EC50 (M3 muscarinic receptor) [nM] | Emax (M3 muscarinic receptor) [%] | EC50 (M2 muscarinic receptor) [nM] | Emax (M2 muscarinic receptor) [%]
1 | CC(C)C[C@@H](C(=O)N[C@H]1CCC2(CCN(CCC(C)(C)C)CC2)c2ccccc21)N1CCCC1=O [compound 23] | < 2000 | 25 to 100 | 2000 to 5000 | < 25 | > 5000 | < 25 | > 5000 | < 25
2 | CCN(C(=O)C1CCC(OC)CC1)[C@H]1CCC2(CCN(CCC(C)(C)C)CC2)c2ccccc21 (stereo partly drawn) [compound 24] | < 2000 | 25 to 100 | > 5000 | < 25 | > 5000 | < 25 | < 2000 | 25 to 100
3 | CN1CC(C(=O)N[C@@H]2CCC3(CCN(CCC(C)(C)C)CC3)c3ccccc32)CC1=O (stereo partly drawn) [compound 25] | < 2000 | 25 to 100 | > 5000 | < 25 | > 5000 | < 25 | > 5000 | < 25
4 | CCC(=O)C1NCCC1C(=O)N[C@H]1CCC2(CCN(CCC(C)(C)C)CC2)c2cc(F)ccc21 (stereo partly drawn) [compound 26] | < 2000 | 25 to 100 | < 2000 | 25 to 100 | > 5000 | < 25 | > 5000 | < 25
5 | CC(C)(C)CCN1CCC2(CC[C@H](NC(=O)C3CCCO3)c3ccc(F)cc32)CC1 (stereo partly drawn) [compound 27] | < 2000 | 25 to 100 | < 2000 | 25 to 100 | > 5000 | < 25 | < 2000 | < 25
6 | CC(C)(C)CCN1CCC2(CC[C@H](NC(=O)CC3CCCC3=O)c3ccc(F)cc32)CC1 (stereo partly drawn) [compound 28] | < 2000 | 25 to 100 | < 2000 | 25 to 100 | > 5000 | < 25 | 2000 to 5000 | < 25
7 | CC(C)(C)CCN1CCC2(CC[C@@H](NC(=O)CCN3CCCC3=O)c3ccc(F)cc32)CC1 [compound 29] | < 2000 | 25 to 100 | < 2000 | 25 to 100 | > 5000 | < 25 | < 2000 | 25 to 100
8 | CCN(C(=O)C1CCOC(C)(C)C1)[C@H]1CCC2(CCN(CCC(C)(C)C)CC2)c2ccccc21 (stereo partly drawn) [compound 30] | 2000 to 5000 | 25 to 100 | > 5000 | < 25 | > 5000 | < 25 | > 5000 | < 25
9 | CC(C)(C)CCN1CCC2(CC[C@H](NC(=O)C3CCCO3)c3ccccc32)CC1 (stereo partly drawn) [compound 31] | < 2000 | 25 to 100 | < 2000 | 25 to 100 | > 5000 | < 25 | < 2000 | < 25
10 | CC(=O)N[C@@H]1c2ccccc2C2(CCN(CCC(C)(C)C)CC2)CC1(F)F [compound 32] | < 2000 | 25 to 100 | < 2000 | 25 to 100 | > 5000 | < 25 | < 2000 | 25 to 100
11 | CC(=O)NCC(=O)N[C@H]1CCC2(CCN(CCC(C)(C)C)CC2)c2cc(F)ccc21 [compound 33] | < 2000 | 25 to 100 | < 2000 | 25 to 100 | > 5000 | < 25 | < 2000 | 25 to 100
12 | CCN(C(=O)C(C)NC(C)=O)[C@H]1CCC2(CCN(CCC(C)(C)C)CC2)c2ccccc21 (stereo partly drawn) [compound 34] | < 2000 | 25 to 100 | < 2000 | 25 to 100 | > 5000 | < 25 | 2000 to 5000 | < 25
13 | CC(C)NC(=O)C1CCC2(CCN(CCC(C)(C)C)CC2)c2ccccc21 (stereo not drawn) [compound 35] | < 2000 | 25 to 100 | > 5000 | < 25 | > 5000 | < 25 | > 5000 | < 25
14 | CC(C)(C)CCN1CCC2(CC[C@H](NC(=O)C3CCN(C(=O)c4ccccc4)CC3)c3ccccc32)CC1 [compound 36] | < 2000 | 25 to 100 | < 2000 | 25 to 100 | > 5000 | < 25 | > 5000 | < 25
15 | CC(C)(C)CCN1CCC2(CCCc3ccccc32)CC1 [compound 37] | < 2000 | 25 to 100 | 2000 to 5000 | 25 to 100 | > 5000 | < 25 | 2000 to 5000 | 25 to 100
